# From patent US5741782A, “Antibiotic cocktail and method of use” (Cryolife, Inc., priority 1996, dated 1998)
# Values joined by “and” are separate entries in the source; they are usually repeats but may differ in a detail not shown here. Equal values may be shown once. Read-outs that look alike come from different tables or passages of the source.
# What was measured:
# [1] = tested on: Candida albicans ATCC strain 14053; test: survival of Candida albicans in antifungal cocktails (membrane filtration enumeration); format: cell-based; conditions: Example 14; for surviving yeast, Tube B: Tube B (734 CFU/ml at time zero), 35° C.; for fungicidal activity (in words): Tube B, fluconazole 100 μg/ml, amphotericin B 0.6 μg/ml, or fluconazole 100 + amphotericin B 0.3 μg/ml
# Experimental: The Candida albicans used in these studies was ATCC strain 14053 (American Type Culture Collection). The purity of the strain was verified before and after cultivation.
# The test organism was cultured on a Sabouraud Agar Plate, streaked for isolation, and incubated at 35° C. for 24 hours. A single colony was removed using a sterile cotton swab and placed in 5.0 ml of sterile saline. The mixture was vortexed, and dilutions were made and compared to a standard turbidity chart until the turbidity matched a 0.5 turbidity standard (a 0.5 MacFarland turbidity standard suspension). Serial dilutions were made as follows: (1) 0.5 ml of the 0.5 MacFarland turbidity standard was added to 4.5 ml of sterile normal saline (Tube A; expected population 10^5 cfu/ml); (2) 0.1 ml of the Tube A suspension was added to 9.9 ml of sterile normal saline (Tube B; expected population 10^3 cfu/ml); and (3) 0.1 ml of the Tube B suspension was added to 9.9 ml of sterile normal saline (Tube C; expected population 10 cfu/ml). Each serial dilution was vortexed for 30 seconds before the next transfer.
# Tubes B and C were challenged with these cocktails. Each cocktail (24.0 ml) was placed into a sterile 115 ml plastic cup, and 1.0 ml of the yeast population from Tube B or C was added. The cups were mixed gently, capped and placed in the incubator for 24 hours at 35° C. After the prescribed incubation period, 1.0 ml of the yeast-cocktail mixture was removed from each tube and processed to obtain an enumeration of the surviving yeast organisms. The remaining mixture was placed back into the incubator and incubated for an additional 24 hours. After this incubation period, the cups were removed, swirled gently and 1.0 ml was removed, and the above process was repeated.
# Enumeration of the yeast was performed as follows; each sample was tested in duplicate, One milliliter (1.0 ml) of year suspension was added to the top assembly of a sterile disposable filter apparatus which contained 99 ml of sterile normal saline. The contents were mixed gently and filtered. The filter pad was removed aseptically using sterile disposable forceps and placed on Sabouraud Agar plates. The plates were incubated at 35° C. for 24 hours, and the colonies were then counted.
# [2] = tested on: yeast isolates; test: yeast challenge of antibiotic cocktails, overall; format: cell-based; conditions: for fungicidal activity (in words): Example 16, ten donor tissue isolates, 24 hours; for antiyeast activity at doses which maintain tissue viability (in words): summary of Examples 14 and 15
# Text: The ten yeast isolates tested were:
# [3] = tested on: valve leaflet fibroblasts; conditions: for AVG incorporation of 3H-glycine: Example 10; for percent of control: Example 2
# Experimental: (§1) Preferably, however, the tissue is incubated with a radioactively-labeled amino acid, and the incorporation of the amino acid into proteins is monitored by counting disintegrations per minute (DPM) per unit of tissue.
# (§2) All of the valve leaflet halves were incubated for 48 hours at 37° C. in the antibiotic cocktails and then cryopreserved.
# (§3) Experiment #2: Paired halves of leaflets were again used. One half was used as a fresh control and immediately labelled with ^3 H-glycine to determine leaflet fibroblast viability (see below). […] The antibiotic-treated leaflets were incubated for 48 hours at 37° C. in the antibiotic cocktails and then cryopreserved.
# (§4) A 1.8 ml Nalge cryovial was used to contain the leaflet tissue. The freezing program takes the tissue from +4° to -80° C. in approx 80 to 90 minutes.
# (§5) The valve leaflet halves were stored in liquid nitrogen freezer for at least two days, but no more than three weeks, before being thawed.
# (§6) The valve leaflet halves were thawed by removing the valve tissue to be thawed from the liquid nitrogen freezer. As quickly as possible, the tissue was transferred to a 37° C. waterbath. When all of the ice had dissolved (about 2 minutes), the cryovial was transferred to a hood, and 4 ml of room temperature lactated Ringers plus 5% dextrose (DBLR) was dispensed into a 5-ml snap-cap tube (Falcon) for each cryovial being thawed. The exterior of the cryovial was rinsed with 70% isopropanol and any excess wiped away before opening. Using sterile forceps, the leaflet tissue was transferred into the tube containing the DBLR. The tissue was allowed to remain in D5LR for 5 minutes.
# (§7) Tissue viability was assessed by the measurement of ^3 H-glycine incorporation into proteins as follows. The thawed valve leaflet halves were placed in snap-cap tubes (Falcon) containing 16 μCi of tritiated-glycine (DuPont New England Nuclear) in 1 ml of DMEM supplemented with 15 μg/ml ascorbic acid. Radiolabeled glycine incorporation was determined after a 48 hour incubation at 37° C. in an atmosphere consisting of 5% carbon dioxide in air. The tissue was then washed four times with phosphate-buffered saline, dehydrated with ethanol and ether, air dried and weighed. The tissue samples were then rehydrated with 200 μl of water and solubilized by the addition of 500 μl of 1M NaOH. After incubation at 60° C. for 1 hour, the samples were sonicated twice for 20-seconds. […] The filter discs were dried, and the proteins precipitated by addition of ice-cold 10% trichloroacetic acid for 30 minutes. This was followed by five ethanol rinses, two ether rinses, and drying. The discs were then placed in 10 ml of scintillation fluid (Cytoscint ES, ICN Biomedicals, Inc., Irvine, Calif.). Tritium incorporation was measured by scintillation counting using a LS1701 (Beckman Instruments, Inc., Palo Alto, Calif.).
# (§8) The incorporation of ^3 H-glycine into proteins is expressed in disintegrations per minute (DPM) per mg of dry tissue.
# [4] = tested on: bacteria; conditions: general statement; cited from earlier work
# [5] = tested on: valve leaflet fibroblasts; test: cells; conditions: Homo sapiens, Fibroblast, read-out: AVG percent of control, Example 2
# Experimental: as §1, §2, §3, §4, §5, §6, §7, §8
# [6] = tested on: cells responsible for allograft longevity in patients; conditions: literature: Hu et al., Lange and Hopkins, McNally and Brockbank; cited from earlier work
# [7] = in vitro; conditions: human, heart valve leaflets, AVG % CONTRL, Example 3
# Experimental: as §1, §2, §3, §4, §5, §6, §7, §8
structure (smiles),measurement,setting,value
"OC(Cn1cncn1)(Cn1cncn1)c1ccc(F)cc1F [Fluconazole, fluconazole]","surviving yeast, Tube B",[1]; 24 hr,31 colonies
same,"surviving yeast, Tube B",[1]; 48 hr,45 colonies
same,fungicidal activity (in words),[1],suggests a tolerance or static phenomenon
same,fungicidal activity (in words),[2],did not affect the fungicidal activity greatly
same,antiyeast activity at doses which maintain tissue viability (in words),[2],"Neither amphotericin B, nor fluconazole, alone substantially inhibits yeast growth at doses which substantially maintain tissue viability"
same,viability after treatment (in words),"[3]; Example 1, 100 μg/ml fluconazole added",not harmful to the tissue
"CCN[C@@H]1C[C@H](N)[C@@H](O[C@H]2OC(CN)=CC[C@H]2N)[C@H](O)[C@H]1O[C@H]1OC[C@](C)(O)[C@H](NC)[C@H]1O [Netilmicin, netilmicin]",fungicidal activity (in words),[2],did not have any adverse effects on the fungicidal activity of fluoconazole and amphotericin B
same,AVG incorporation of 3H-glycine,"[3]; 20 μg/ml netilmicin, 24 hours",4213 DPM/mg
same,AVG incorporation of 3H-glycine,"[3]; 30 μg/ml netilmicin, 24 hours",6805 DPM/mg
same,AVG incorporation of 3H-glycine,"[3]; 50 μg/ml netilmicin, 24 hours",5815 DPM/mg
same,antibacterial activity (in words),[4],effective against many aerobic gram-negative bacteria and some aerobic gram-positive bacteria
same,lack of antibacterial activity (in words),[4],inactive against most streptococci and most anaerobic bacteria
"CO[C@H]1/C=C/O[C@@]2(C)Oc3c(C)c(O)c4c(O)c(c(/C=N/N5CCN(C)CC5)c(O)c4c3C2=O)NC(=O)/C(C)=C\C=C\[C@H](C)[C@H](O)[C@@H](C)[C@@H](O)[C@@H](C)[C@H](OC(C)=O)[C@@H]1C [Rifampin, rifampin]",activity at 10 µg/mL,[5]; 10 μg/ml rifampin,93%
same,activity at 30 µg/mL,[5]; 30 μg/ml rifampin,80%
same,activity at 100 µg/mL,[5]; 100 μg/ml rifampin,42%
same,percent of control,[3]; 10 μg/ml rifampin,96% and 110% and 91% and 75% and 73% and 114%
same,percent of control,[3]; 30 μg/ml rifampin,94%
"C[C@@H]1[C@H](O)[C@@H](C)/C=C/C=C/C=C/C=C/C=C/C=C/C=C/[C@H](O[C@@H]2O[C@H](C)[C@@H](O)[C@H](N)[C@@H]2O)C[C@@H]2O[C@](O)(C[C@@H](O)C[C@@H](O)[C@H](O)CC[C@@H](O)C[C@@H](O)CC(=O)O[C@H]1C)C[C@H](O)[C@H]2C(=O)O [Amphotericin B, amphotericin B]",fungicidal activity (in words),[1],fungicidal
same,fungicidal activity (in words),[2],shows greater fungicidal activity
same,antiyeast activity at doses which maintain tissue viability (in words),[2],"Neither amphotericin B, nor fluconazole, alone substantially inhibits yeast growth at doses which substantially maintain tissue viability"
same,average viability (in words),"[3]; Example 5, 0.3 μg/ml amphotericin B in the antibiotic mixture",average viability greater than the control
same,MEAN incorporation of 3H-glycine,"[3]; Example 11, 0.3 μg/ml amphotericin B, 24 hours",4965 DPM/mg
same,MEAN incorporation of 3H-glycine,"[3]; Example 11, 0.6 μg/ml amphotericin B, 24 hours",4960 DPM/mg
same,MEAN incorporation of 3H-glycine,"[3]; Example 11, 1.0 μg/ml amphotericin B, 24 hours",4914 DPM/mg
same,MEAN incorporation of 3H-glycine,"[3]; Example 11, 2.0 μg/ml amphotericin B, 24 hours",4236 DPM/mg
same,MEAN incorporation of 3H-glycine,"[3]; Example 11, 3.0 μg/ml amphotericin B, 24 hours",4452 DPM/mg
same,toxicity (in words),[6],toxic to the cells responsible for allograft longevity in patients
"CN[C@H](CC(C)C)C(=O)N[C@H]1C(=O)N[C@@H](CC(N)=O)C(=O)N[C@H]2C(=O)N[C@H]3C(=O)N[C@H](C(=O)N[C@H](C(=O)O)c4cc(O)cc(O)c4-c4cc3ccc4O)[C@H](O)c3ccc(c(Cl)c3)Oc3cc2cc(c3O[C@@H]2O[C@H](CO)[C@@H](O)[C@H](O)[C@H]2O[C@H]2C[C@](C)(N)[C@H](O)[C@H](C)O2)Oc2ccc(cc2Cl)[C@H]1O [Vancomycin, vancomycin]",antibacterial activity (in words),[4],"active against many gram-positive organisms, including staphylococci, streptococci, enterococci, Clostridium and Corynebacterium"
same,lack of antibacterial activity (in words),[4],inactive against gram-negative bacteria
"C[C@@H](O)[C@H]1C(=O)N2C(C(=O)O)=C(SCCN=CN)C[C@H]12 [Imipenem, imipenem]",MEAN incorporation of 3H-glycine,"[3]; Example 8, 48 μg/ml imipenem, 24 h",5269 DPM/mg
same,MEAN incorporation of 3H-glycine,"[3]; Example 8, 48 μg/ml imipenem, 48 h",5316 DPM/mg
same,MEAN incorporation of 3H-glycine,"[3]; Example 8, 72 μg/ml imipenem, 24 h",6897 DPM/mg
same,MEAN incorporation of 3H-glycine,"[3]; Example 8, 72 μg/ml imipenem, 48 h",7198 DPM/mg
same,MEAN incorporation of 3H-glycine,"[3]; Example 8, 96 μg/ml imipenem, 24 h",5885 DPM/mg
same,MEAN incorporation of 3H-glycine,"[3]; Example 8, 96 μg/ml imipenem, 48 h",6526 DPM/mg
same,viability,[7]; 12 μg/ml imipenem + rifampin 10 μg/ml,86%
same,viability,[7]; 24 μg/ml imipenem + rifampin 10 μg/ml,90%
same,viability,[7]; 48 μg/ml imipenem + rifampin 10 μg/ml,104%
same,antibacterial activity (in words),[4],active against most aerobic gram-positive and gram-negative bacteria and most anaerobic gram-positive and gram-negative bacteria
